Results reported in publication PMC10916382, “Repurposing screen identifies novel candidates for broad-spectrum coronavirus antivirals and druggable host targets” (Antimicrobial Agents and Chemotherapy, 2024).
Read-outs that look alike come from different tables or passages of the source.

Columns and labels:
HCoV-229E = experiment: microbe, parasite or virus in culture; type: cell-based, Homo sapiens sapiens; conditions: Human coronavirus 229E, Huh7.5, read-out: IC50 (µM), HCoV 229E
in vitro [1] = conditions: human
in vitro [2] = experiment: in vitro
[3] = Huh-7.5/F-Luc cells, maximum tested dose 5 µM
[4] = Calu-3 cells, immunofluorescence imaging
[5] = Anti-SARS-CoV-2 screening on Calu-3 cells: viability [% of control], Calu-3 cells

SMILES	IC50 (HCoV-229E)	CC50 (µM) (Huh-7.5/F-Luc cells; [3])	Anti-SARS-CoV-2 screening on Calu-3 cells: intracellular SARS-CoV-2 infection measured via immunofluorescence imaging [% of control] (SARS-CoV-2; [4])	viability at 5 µM (in vitro [1])	viability at 48 h, 5 µM (in vitro [2])	viability (in vitro [2]; [5])	CC50 (µM) (Huh-7.5/F-Luc cells)	Anti-SARS-CoV-2 screening on Calu-3 cells: intracellular SARS-CoV-2 infection measured via immunofluorescence imaging [% of control] (SARS-CoV-2)	viability (in vitro [2])
c1ccc2c(c1)Sc1ccccc1N2CC1CN2CCC1CC2 (stereo not shown) [RFM-000-842-4]	1.6 µM	greater than maximum tested dose	112.52 % of control	166%	110%	–	–	–	–
CN(C)CCC=C1c2ccccc2C(C)(C)c2ccccc21 [RFM-000-885-5]	1.34 µM	greater than maximum tested dose	109.53 % of control	152%	–	93%	–	–	–
CC(OCCN1CCCCCC1)(c1ccccc1)c1ccc(Cl)cc1 (stereo not shown) [RFM-000-944-9]	1.87 µM	greater than maximum tested dose	104.31 % of control	146%	–	95.3%	–	–	–
CCCCCCOC(=O)NC(=N)c1ccc(NCc2nc3cc(C(=O)N(CCC(=O)OCC)c4ccccn4)ccc3n2C)cc1 [RFM-002-982-3]	3.13 µM	greater than maximum tested dose	100.41 % of control	126%	–	106%	–	–	–
CN1CCN(CC/C=C2/c3ccccc3Sc3ccc(S(=O)(=O)N(C)C)cc32)CC1 [RFM-003-384-1]	1.22 µM	–	–	148%	114%	–	greater than maximum tested dose	116.45 % of control	–
CN(C)C(=O)NC1(c2ccccc2)CCN(CCC[C@]2(c3ccc(Cl)c(Cl)c3)CCCN(C(=O)c3ccccc3)C2)CC1 [RFM-003-485-5]	1.64 µM	greater than maximum tested dose	114.56 % of control	172%	–	109%	–	–	–
COC(=O)C1=C(C)NC(C)=C(C(=O)OCCCN2CCC(c3ccccc3)(c3ccccc3)CC2)[C@@H]1c1cccc([N+](=O)[O-])c1 [RFM-003-515-4]	1.39 µM	–	–	136%	–	–	greater than maximum tested dose	83.07 % of control	92.9%
COc1cc(Nc2ncc(F)c(Nc3ccc4c(n3)N(COP(=O)(O)O)C(=O)C(C)(C)O4)n2)cc(OC)c1OC [RFM-004-140-7]	4.09 µM	greater than maximum tested dose	134.69 % of control	93.7%	86.2%	–	–	–	–
CN(C)CCCN1c2ccccc2Sc2ccc(C(F)(F)F)cc21 [RFM-004-217-1]	1.19 µM	–	–	159%	72.7%	–	greater than maximum tested dose	110.23 % of control	–
CCCCC1=Cc2cc3c(cc2C1N1CCN(C)CC1)OCO3 (stereo not shown) [RFM-005-200-6]	2.5 µM	greater than maximum tested dose	112.43 % of control	145%	–	102%	–	–	–
CCN(CC)CCOc1ccc(-c2nc3cc(Cl)ccc3s2)cc1 [RFM-005-834-4]	1.51 µM	greater than maximum tested dose	104.24 % of control	91.6%	–	88.8%	–	–	–
CN1C[C@H](CNC(=O)OCc2ccccc2)C[C@@H]2c3cccc4c3c(cn4C)C[C@H]21 [RFM-005-941-6]	1.26 µM	greater than maximum tested dose	125.57 % of control	163%	117%	–	–	–	–
O=c1[nH]c2cc(Cl)ccc2n1C1CCN(CCCC(c2ccc(F)cc2)c2ccc(F)cc2)CC1 [RFM-008-181-2]	1.84 µM	greater than maximum tested dose	97.91 % of control	121%	–	107%	–	–	–
CC(CN(C)C)CN1c2ccccc2CCc2ccccc21 (stereo not shown) [RFM-008-630-6]	1.47 µM	greater than maximum tested dose	106.86 % of control	145%	114%	–	–	–	–
Cn1cc(C2=C(c3c4n(c5ccccc35)CCC(CN)C4)C(=O)NC2=O)c2ccccc21 (stereo not shown) [RFM-009-039-1]	1.73 µM	greater than maximum tested dose	111.69 % of control	154%	–	95.9%	–	–	–
CCCCc1oc2ccc(C(=O)OC(C)C)cc2c1C(=O)c1ccc(CCCN(CCCC)CCCC)cc1 [RFM-009-487-1]	1.23 µM	greater than maximum tested dose	97.65 % of control	122%	–	87.8%	–	–	–
CCCN(CCC)C(=O)C(Cc1ccc(OCCCN2CCN(C)CC2)cc1)NC(=O)c1ccc(Cl)cc1 (stereo not shown) [RFM-009-534-1]	3.36 µM	greater than maximum tested dose	104.27 % of control	135%	–	103%	–	–	–
CN[C@@H](CC(C)C)C(=O)NCCCC(c1ccc(F)cc1)c1ccc(F)cc1 [RFM-010-013-0]	2.77 µM	greater than maximum tested dose	111.66 % of control	136%	–	99.2%	–	–	–
CC(C(O)c1ccccc1)N(C)CC=C1c2ccccc2CCc2ccccc21 (stereo not shown) [RFM-010-015-2]	1.96 µM	greater than maximum tested dose	107.49 % of control	122%	–	107%	–	–	–
CC(C)C(=O)c1ccc(OCCCN2CCC(C(O)(c3ccc(F)cc3)c3ccc(F)cc3)CC2)cc1 [RFM-010-056-1]	1.47 µM	greater than maximum tested dose	122.17 % of control	119%	–	93.4%	–	–	–
OCCN1CCN(CCCC2c3ccc(F)cc3Sc3ccc(C(F)(F)F)cc32)CC1 (stereo not shown) [RFM-010-066-3]	2.98 µM	greater than maximum tested dose	109.58 % of control	148%	–	86.5%	–	–	–
CCOC(=O)/C=C/[C@H](C[C@@H]1CCNC1=O)NC(=O)[C@@H](CC(=O)[C@@H](NC(=O)c1cc(C)on1)C(C)C)Cc1ccc(F)cc1 [RFM-010-414-3]	4.19 µM	greater than maximum tested dose	93.65 % of control	94.6%	–	100%	–	–	–
OC1CCN(CCCN2c3ccccc3Sc3ccc(C(F)(F)F)cc32)C1 (stereo not shown) [RFM-010-589-5]	1.4 µM	greater than maximum tested dose	102.40 % of control	146%	–	110%	–	–	–
COc1cc2c(cc1NS(=O)(=O)c1ccc(-c3ccc(Cl)s3)cc1)CCN(C)CC2 [RFM-010-759-5]	1.73 µM	greater than maximum tested dose	107.82 % of control	133%	–	92.9%	–	–	–
Oc1ccc(Nc2ccnc3cc(Cl)ccc23)cc1CN1CCCC1 [RFM-010-841-8]	1.41 µM	greater than maximum tested dose	102.22 % of control	165%	–	109%	–	–	–
CN(C)CCOC(c1ccccc1)c1ccc(Br)cc1 (stereo not shown) [RFM-010-846-3]	2.14 µM	greater than maximum tested dose	102.09 % of control	157%	–	92.2%	–	–	–
CC(C)NCC(O)COc1ccc(CC(=O)OCCC23CC4CC(CC(C4)C2)C3)cc1 (stereo not shown) [RFM-010-929-5]	1.76 µM	greater than maximum tested dose	113.56 % of control	122%	–	90.2%	–	–	–
COc1cccc(CCc2ccccc2OCC[C@@H]2C[C@@H](O)CN2C)c1 [RFM-011-187-5]	2.43 µM	greater than maximum tested dose	105.26 % of control	131%	–	102%	–	–	–
Cc1cc(OCCN(C)C)c(C(C)C)cc1OC(=O)CC(C)(C)SN=O [RFM-011-454-5]	2.37 µM	greater than maximum tested dose	101.17 % of control	118%	–	88.9%	–	–	–
